The text below walks through data of patent US20220213092A1, “BICYCLIC PYRAZOLE BRUTON'S TYROSINE KINASE INHIBITORS” (AbbVie Inc., priority 2020, published 2022).

The target of assay [1] is T1, Full length BTK enzyme (human BTK residues 2-659) (Homo sapiens, UniProt Q06187).
T1 construct: 6His (N); Flag (N); TEV cleavage site (N); Serine (single linker residue before BTK residue 2) (N); made in house; host or cells: baculovirus (pFastBac vector)
Nature of the assay: BTK MSA with full length BTK enzyme, used for Examples 50, 51, 62 and 63. Type of assay: biochemical. As to conditions: Examples 50, 51, 62 and 63: 1 mM ATP, 0.6 nM full length BTK enzyme, 3 hours at room temperature. As for the experimental part:
Kinase activities for Examples 50, 51, 62 and 63 were measured in vitro using the following electrophoretic mobility shift assay (MSA). The kinase reactions were assembled in a total volume of 20 μL in 384 well plates. To each well, 20 nL test compound, or control, in 100% dimethyl sulfoxide was spotted using Echo®, a liquid dispensing instrument (Labcyte, Indianapolis, Ind.). To each well was added: 12 μL of 1.67× Full length BTK enzyme in Master Buffer (Master Buffer components: 20 mM HEPES pH 7.4, 10 mM MgCl2, 1 mM DTT, 0.1 mM sodium orthovanadate, 10 mM beta-glycerophosphate, and 0.0075% w/v Triton x-100). Full length BTK enzyme was 6His-Flag-(TEV)-S[BTK(hu) (2-659)]*BEV, pFastBac*. [Note: this is a description of the exact amino acid sequence of the expressed BTK construct from N- to C-terminus: 6Histidines, Flag tag sequence, TEV cleavage site, Serine, human BTK residues 2-659; and BEV=expressed in baculovirus, pFastBac is the expression vector used].
Enzyme and compound/inhibitor were optionally pre-incubated. To each well was added: 8 μL of 2.5×ATP and substrate in 1× Master Buffer (1× Master Buffer as described above). The plate was incubated at room temperature for 3 hours. The reaction was terminated by adding 30 μL of 1.67× Stop Buffer (Stop Buffer components 10 mM EDTA in water), to each well. The final reaction mixture was as follows: 20 mM HEPES, pH 7.4; 0.0075% Triton X-100; 1 mM DTT; 10 mM MgCl2; 0.1 mM sodium orthovanadate; 10 mM beta-glycerophosphate; 0.1% dimethyl sulfoxide (from compound); 1 mM ATP; 1 μM (OG488-SEQ ID NO. 2-NH2) peptide substrate; and 0.6 nM BTK enzyme. […] The kinase activity for the kinases in Table 3 were measured at 3 hours incubation time, except that in the case of MAP2K1 and MAP2K2 assay, pre-activation of ERK was done for 30 min with 6 μM of ATP, and then the detection of activated ERK in the presence of compounds was done after 60 minutes of incubation.
The terminated reactions were analyzed using a 12 channel LABCHIP® 3000 microfluidic detection instrument (available from Caliper Life Sciences, Waltham, Mass.). […] As substrate and product peptides were separated, two peaks of fluorescence were observed. Change in the relative fluorescence intensity of the substrate and product peaks was the parameter measured, reflecting enzyme activity. […] Capillary electrophoregrams (RDA acquisition files) were analyzed using HTS Well Analyzer software (available from Caliper Life Sciences, Waltham, Mass.).
Activity in each sample was determined as the product to sum ratio (PSR): P/(S+P), where P was the peak height of the product peptide and S was the peak height of the substrate peptide. For each compound, enzyme activity was measured at various concentrations (12 concentrations of compound spaced by 3× dilution intervals). […]

Assay [2] concerns the target T2, Phosphorylation of Y223 of BTK (Homo sapiens, UniProt Q06187).
T2 construct: host or cells: healthy human whole blood, 3 donors
As to the kind of experiment: Whole blood compound screening, phosphorylation of Y223 site of BTK (MSD assay). As to conditions: healthy human whole blood, 2 hours at 37° C., 3 separate donors; read-out: WB BTK-pY223 EC50. Type of assay: cell-based. The essentials:
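Heparinized human whole blood from 3 donors treated 2 h at 37 °C with compounds (8 points, top 10 μM, 1:4 dilution, 0.2% DMSO), then lysed. BTK pY223 quantified by MSD sandwich immunoassay (anti-BTK capture, anti-pY223 detection); EC50 from concentration response.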

T1 sequence (Q06187 2-659): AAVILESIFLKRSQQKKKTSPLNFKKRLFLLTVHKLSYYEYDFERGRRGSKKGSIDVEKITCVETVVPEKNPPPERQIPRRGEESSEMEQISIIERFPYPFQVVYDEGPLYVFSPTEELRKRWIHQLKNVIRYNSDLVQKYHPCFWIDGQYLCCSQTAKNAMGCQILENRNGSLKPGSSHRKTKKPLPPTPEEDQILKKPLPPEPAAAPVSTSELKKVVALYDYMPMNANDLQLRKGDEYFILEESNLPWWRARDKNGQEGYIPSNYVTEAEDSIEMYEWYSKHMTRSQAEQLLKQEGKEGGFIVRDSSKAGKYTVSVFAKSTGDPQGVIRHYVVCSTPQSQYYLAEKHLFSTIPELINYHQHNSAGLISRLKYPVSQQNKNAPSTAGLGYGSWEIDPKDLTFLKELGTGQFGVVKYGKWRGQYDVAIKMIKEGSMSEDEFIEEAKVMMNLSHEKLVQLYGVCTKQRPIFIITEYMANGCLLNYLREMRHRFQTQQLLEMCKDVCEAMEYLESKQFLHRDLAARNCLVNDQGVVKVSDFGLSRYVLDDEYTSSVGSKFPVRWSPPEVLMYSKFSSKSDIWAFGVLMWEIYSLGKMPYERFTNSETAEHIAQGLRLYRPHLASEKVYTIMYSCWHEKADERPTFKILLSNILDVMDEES
T2 sequence (Q06187 whole entry): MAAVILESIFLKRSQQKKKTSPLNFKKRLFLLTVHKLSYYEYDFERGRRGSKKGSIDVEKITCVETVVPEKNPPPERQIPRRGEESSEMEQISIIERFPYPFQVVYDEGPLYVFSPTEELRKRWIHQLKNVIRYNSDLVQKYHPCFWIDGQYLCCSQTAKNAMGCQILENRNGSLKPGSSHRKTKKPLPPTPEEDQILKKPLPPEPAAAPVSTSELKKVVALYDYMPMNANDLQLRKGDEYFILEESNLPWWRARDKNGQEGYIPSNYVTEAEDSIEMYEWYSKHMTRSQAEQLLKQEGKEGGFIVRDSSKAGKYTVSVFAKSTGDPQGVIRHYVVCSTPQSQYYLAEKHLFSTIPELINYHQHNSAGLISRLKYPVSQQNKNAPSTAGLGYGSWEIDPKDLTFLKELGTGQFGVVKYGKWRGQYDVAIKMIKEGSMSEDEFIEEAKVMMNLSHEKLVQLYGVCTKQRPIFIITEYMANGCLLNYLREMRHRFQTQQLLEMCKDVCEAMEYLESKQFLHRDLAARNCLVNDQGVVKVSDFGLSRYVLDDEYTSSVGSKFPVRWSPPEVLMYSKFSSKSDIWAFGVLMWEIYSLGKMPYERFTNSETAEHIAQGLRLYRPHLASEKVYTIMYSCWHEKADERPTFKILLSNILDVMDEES

For orientation: IC50 means the concentration needed to halve the response being measured. In assay [1], `CCO/C=C/C(=O)N1CCN([C@@H]2CCNc3c2nn(-c2ccc(Oc4ccccc4)cc2)c3C(N)=O)CC1` [Example 50, (7R)-7-{4-[(2E)-3-ethoxyprop-2-enoyl]piperazin-1-yl}-2-(4-phenoxyphenyl)-4,5,6,7-tetrahydro-2H-pyrazolo[4,3-b]pyridine-3-carboxamide] registered a half-maximal inhibitory concentration (IC50) of 38.6 nM.

In turn, `COC(=O)/C=C/C(=O)N1CCN(C2CCNc3c2nn(-c2ccc(Oc4ccccc4)cc2)c3C(N)=O)CC1` (stereo not drawn) [Example 51, methyl (2E)-4-{4-[3-carbamoyl-2-(4-phenoxyphenyl)-4,5,6,7-tetrahydro-2H-pyrazolo[4,3-b]pyridin-7-yl]piperazin-1-yl}-4-oxobut-2-enoate] gave an IC50 in assay [1] of 507 nM.

The EC50 is the concentration giving half of the maximal effect. With `C=CC(=O)N1CC(N2CCNc3c2nn(-c2ccc(Oc4cccc(F)c4)cc2)c3C(N)=O)C1` [Example 62, 2-[4-(3-fluorophenoxy)phenyl]-7-[1-(prop-2-enoyl)azetidin-3-yl]-4,5,6,7-tetrahydro-2H-pyrazolo[3,4-b]pyrazine-3-carboxamide], the EC50 in assay [2] was found to be 7.75 nM. This compound also returned a half-inhibitory concentration (IC50) in assay [1] of 6.2 nM.

As to `C=CC(=O)N1CC(N2CCNc3c2nn(-c2ccc(Oc4ccc(F)c(F)c4)cc2)c3C(N)=O)C1` [Example 63, 2-[4-(3,4-difluorophenoxy)phenyl]-7-[1-(prop-2-enoyl)azetidin-3-yl]-4,5,6,7-tetrahydro-2H-pyrazolo[3,4-b]pyrazine-3-carboxamide], the EC50 in assay [2] stood at 19.4 nM. For the same compound, the concentration for half-maximal inhibition (IC50) in assay [1] amounted to 20.3 nM.
